Here are results for 16 compounds from US20230022157A1 (Achillion Pharmaceuticals, Inc., priority 2018, published 2023).

As a reminder, the IC50 is the midpoint of a concentration-inhibition curve.

Where only a bound is given, the exact number is not on record here.

The target of one assay is T1, Human Factor D (Homo sapiens, UniProt P00746).
T1 construct: purified from human serum; purchased Complement Technology, Inc; host or cells: human serum (natural protein, not recombinant)
T1 sequence (P00746 26-253): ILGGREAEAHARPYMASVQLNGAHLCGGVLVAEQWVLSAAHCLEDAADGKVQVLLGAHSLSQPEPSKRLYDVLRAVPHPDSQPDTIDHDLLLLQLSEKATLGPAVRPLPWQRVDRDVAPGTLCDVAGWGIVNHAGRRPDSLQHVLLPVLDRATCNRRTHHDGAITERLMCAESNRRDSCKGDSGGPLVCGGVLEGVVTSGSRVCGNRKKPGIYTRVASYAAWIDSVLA
Put plainly: Human Factor D Assay. In kind it is biochemical. As to conditions: Human Factor D 80 nM, substrate Z-L-Lys-SBzl, assay of Example 3; read-out: IC50 (Stars). The procedure, abridged:
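Serum-purified human factor D (80 nM final) preincubated 5 min at room temperature with test compound in 50 mM Tris, 1M NaCl, pH 7.5. Z-L-Lys-SBzl substrate and DTNB then added, each at 100 μM final. IC50 from nonlinear regression of reaction rate against compound concentration.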
On to `CC(=O)c1nn(CC(=O)N2[C@H](C(=O)Nc3nc(Br)ccc3C)C[C@@]3(C)C[C@@H]23)c2c(C)cc(-c3cnc(C(=O)O)nc3)cc12` [Compound 39, 5-(3-acetyl-1-(2-((1R,3S,5R)-3-((6-bromo-3-methylpyridin-2-yl)carbamoyl)-5-methyl-2-azabicyclo[3.1.0]hexan-2-yl)-2-oxoethyl)-7-methyl-1H-indazol-5-yl)pyrimidine-2-carboxylic acid], for which the IC50 was less than 1000 nM.

With `COC(=O)c1ncc(-c2cc(C)c3c(c2)c(C(C)=O)nn3CC(=O)N2[C@H](C(=O)Nc3nc(Br)ccc3C)C[C@@]3(C)C[C@@H]23)cn1` [Compound 38, methyl 5-(3-acetyl-1-(2-((1R,3S,5R)-3-((6-bromo-3-methylpyridin-2-yl)carbamoyl)-5-methyl-2-azabicyclo[3.1.0]hexan-2-yl)-2-oxoethyl)-7-methyl-1H-indazol-5-yl)pyrimidine-2-carboxylate], the half-inhibitory concentration (IC50) is less than 1000 nM. The same measure, in the same setting: the value for `CC(=O)c1nn(CC(=O)N2[C@H](C(=O)N[C@@H](C)CCc3ccccc3)C[C@@]3(C)C[C@@H]23)c2ccc(-c3cnc(C)nc3)cc12` [Compound 12, (1R,3S,5R)-2-(2-(3-Acetyl-5-(2-methylpyrimidin-5-yl)-1H-indazol-1-yl)acetyl)-5-methyl-N—((S)-4-phenylbutan-2-yl)-2-azabicyclo[3.1.0]hexane-3-carboxamide] was less than 1000 nM; that for `CC(=O)c1nn(CC(=O)N2[C@H](C(=O)Nc3cccc(C(F)(F)F)c3F)C[C@@]3(C)C[C@@H]23)c2ccc(-c3cnc4cc(C)nn4c3)cc12` [Compound 25, (1R,3S,5R)-2-(2-(3-Acetyl-5-(2-methylpyrazolol[1,5-A]pyrimidin-6-yl)-1H-indazol-1-yl)acetyl)-N-(2-fluoro-3-(trifluoromethyl)phenyl)-5-methyl-2-azabicyclo[3.1.0]hexane-3-carboxamide] was less than 1000 nM.

The assay is the same for the next values; noted with them: Human Factor D 80 nM, substrate Z-L-Lys-SBzl; Table 2; read-out: IC50 (Stars).
For `CC(=O)c1nn(CC(=O)N2[C@H](C(=O)N[C@H](C)C(F)(F)F)C[C@@]3(C)C[C@@H]23)c2c(C)cc(-c3cnc(C)nc3)cc12` [Compound 152, (1R,3S,5R)-2-{2-[3-acetyl-7-methyl-5-(2-methylpyrimidin-5-yl)indazol-1-yl]acetyl}-5-methyl-N-[(2R)-1,1,1-trifluoropropan-2-yl]-2-azabicyclo[3.1.0]hexane-3-carboxamide], the concentration for half-maximal inhibition (IC50) is less than 1000 nM. Same read-out and setting: as for `CC(=O)c1cn(CC(=O)N2[C@H](C(=O)Nc3nc(C(F)(F)F)ccc3C)C[C@@]3(C)C[C@@H]23)c2c(C)cc(-c3cnc4cc(C)nn4c3)cc12` [Compound 199, (1R,3S,5R)-2-(2-(3-acetyl-7-methyl-5-(2-methylpyrazolo[1,5-a]pyrimidin-6-yl)-1H-indol-1-yl)acetyl)-5-methyl-N-(3-methyl-6-(trifluoromethyl)pyridin-2-yl)-2-azabicyclo[3.1.0]hexane-3-carboxamide], the figure is less than 1000 nM; as for `CC(=O)c1cn(CC(=O)N2[C@H](C(=O)Nc3cc(C)cc(Br)n3)C[C@@]3(C)C[C@@H]23)c2c(C)cc(-c3cnc(C)nc3)cc12` [Compound 193, (1R,3S,5R)-2-(2-(3-acetyl-7-methyl-5-(2-methylpyrimidin-5-yl)-1H-indol-1-yl)acetyl)-N-(6-bromo-4-methylpyridin-2-yl)-5-methyl-2-azabicyclo[3.1.0]hexane-3-carboxamide], less than 1000 nM; as for `CC(=O)c1nn(CC(=O)N2[C@H](C(=O)Nc3nc(Br)ccc3C)C[C@@]3(C)C[C@@H]23)c2c(C)cc(-c3cnc([C@@H](C)O)nc3)cc12` (single isomer, unassigned) [Compound 142], less than 1000 nM. In the case of `CC(=O)c1nn(CC(=O)N2[C@H](C(=O)NC(C)Cc3ccccc3F)C[C@@]3(C)C[C@@H]23)c2c(C)cc(-c3cnc(C)nc3)cc12` (stereo partly drawn) [Compound 186, (1R,3S,5R)-2-{2-[3-acetyl-7-methyl-5-(2-methylpyrimidin-5-yl)indazol-1-yl]acetyl}-N-[1-(2-fluorophenyl)propan-2-yl]-5-methyl-2-azabicyclo[3.1.0]hexane-3-carboxamide], the concentration for half-maximal inhibition (IC50) was less than 1000 nM. On the same count and under the same terms, as for `CC(=O)c1nn(CC(=O)N2[C@H](C(=O)NCCc3ccn(C)n3)C[C@@]3(C)C[C@@H]23)c2c(C)cc(-c3cnc(C)nc3)cc12` [Compound 103, (1R,3S,5R)-2-{2-[3-acetyl-7-methyl-5-(2-methylpyrimidin-5-yl)indazol-1-yl]acetyl}-5-methyl-N-[2-(1-methylpyrazol-3-yl)ethyl]-2-azabicyclo[3.1.0]hexane-3-carboxamide], the figure is less than 1000 nM; as for `CC(=O)c1nn(CC(=O)N2[C@H](C(=O)Nc3nc(C(F)(F)F)ccc3C)C[C@@]3(C)C[C@@H]23)c2c(C)cc(-c3cnc4cc(C)nn4c3)cc12` [Compound 224, (1R,3S,5R)-2-(2-(3-acetyl-7-methyl-5-(2-methylpyrazolo[1,5-a]pyrimidin-6-yl)-1H-indazol-1-yl)acetyl)-5-methyl-N-(3-methyl-6-(trifluoromethyl)pyridin-2-yl)-2-azabicyclo[3.1.0]hexane-3-carboxamide], less than 1000 nM; as for `Cc1cc(F)c(Br)nc1NC(=O)[C@@H]1C[C@@]2(C)C[C@H]2N1C(=O)Cn1nc(C(N)=O)c2cc(-c3cnc(CO)nc3)nc(C)c21` [Compound 167, (1R,3S,5R)—N-(6-bromo-5-fluoro-3-methylpyridin-2-yl)-2-(2-{3-carbamoyl-5-[2-(hydroxymethyl)pyrimidin-5-yl]-7-methylpyrazolo[3,4-c]pyridin-1-yl}acetyl)-5-methyl-2-azabicyclo[3.1.0]hexane-3-carboxamide], less than 1000 nM. The same measure, in the same setting: as for `CC(=O)c1cn(CC(=O)N2[C@H](C(=O)Nc3nc(C(F)(F)F)ccc3Cl)C[C@@]3(C)C[C@@H]23)c2c(C)cc(-c3cnc(C)nc3)cc12` [Compound 233, (1R,3S,5R)-2-(2-(3-acetyl-7-methyl-5-(2-methylpyrimidin-5-yl)-1H-indol-1-yl)acetyl)-N-(3-chloro-6-(trifluoromethyl)pyridin-2-yl)-5-methyl-2-azabicyclo[3.1.0]hexane-3-carboxamide], the figure is less than 1000 nM; as for `CC(=O)c1nn(CC(=O)N2[C@H](C(=O)Nc3nc(Br)ccc3C)C[C@@]3(C)C[C@@H]23)c2ccc(-c3cnc(C(C)O)nc3)cc12` (stereo partly drawn) [Compound 126, (1R,3S,5R)-2-(2-(3-acetyl-5-(2-(1-hydroxyethyl)pyrimidin-5-yl)-1H-indazol-1-yl)acetyl)-N-(6-bromo-3-methylpyridin-2-yl)-5-methyl-2-azabicyclo[3.1.0]hexane-3-carboxamide], less than 1000 nM; as for `CC(=O)c1nn(CC(=O)N2C[C@H](F)C[C@H]2C(=O)Nc2cccc(Br)n2)c2c(C)cc(-c3cnc(C(C)O)nc3)cc12` (stereo partly drawn) [Compound 179, (2S,4R)-1-(2-(3-acetyl-5-(2-(1-hydroxyethyl)pyrimidin-5-yl)-7-methyl-1H-indazol-1-yl)acetyl)-N-(6-bromopyridin-2-yl)-4-fluoropyrrolidine-2-carboxamide], less than 1000 nM. `CC(=O)c1cn(CC(=O)N2[C@H]3CC[C@H](C3)[C@H]2C(=O)Nc2nc(C(F)(F)F)ccc2C)c2c(C)cc(-c3cnc(C)nc3)cc12` [Compound 177, (1S,3S,4R)-2-(2-(3-acetyl-7-methyl-5-(2-methylpyrimidin-5-yl)-1H-indol-1-yl)acetyl)-N-(3-methyl-6-(trifluoromethyl)pyridin-2-yl)-2-azabicyclo[2.2.1]heptane-3-carboxamide]: the IC50 was less than 1000 nM.
